Here are results for 27 molecules from US10039772B2, “Methods and compositions for treating alcohol use disorders” (priority 2015, dated 2018).

Entries after “also recorded” stand apart in the source; their conditions may differ. Structures can show the parent of a compound that is named as a salt.

The target of series [1] is Pannexin 1 (Homo sapiens, UniProt Q96RD7). The settings on record: cited from earlier work.
Series [2] concerns alcohol dependent and nondependent Wistar rats. In words: Rat operant self-administration of alcohol (dependent and nondependent rats). In kind it is in vivo. The conditions noted are these: for operant alcohol self-administration (lever press responding for alcohol): both dependent and nondependent rats, alcohol 10% w/v. How it is done:
Self-administration sessions were conducted in standard operant conditioning chambers (Med Associates). The rats were trained to self-administer alcohol as previously reported (13). First, the rats were given free-choice access to alcohol (10% w/v) and water for 1 day in their home cages to habituate them to the taste of alcohol. Second, the rats were subjected to an overnight session in the operant chambers with access to one lever (right lever) that delivered water in a fixed-ratio 1 (FR1) schedule where every lever press is reinforced with delivery of 0.1 ml of solution. Food was available ad libitum during this training. Third, after 1 day off, the rats were subjected to a 2 hour session (FR1) for 1 day and a 1 hour session (FR1) the next day, with one lever delivering alcohol (right lever). All of the subsequent sessions lasted 30 min, and two levers were available (left lever: water; right lever: alcohol) until stable levels of intake were reached. Upon completion of this procedure, the animals were allowed to self-administer a 10% (w/v) alcohol solution and water on an FR1 schedule of reinforcement.
The rats were made dependent by chronic, intermittent exposure to alcohol vapors as previously described (13).
Effect of carbenoxolone (CBX) on alcohol drinking in rats and mice.

Series [3] has as its system dependent and non-dependent C57BL/6J mice. In words: Mouse limited access 2-bottle choice with chronic intermittent ethanol exposure (CIE). In kind it is in vivo. The conditions noted are these: for ethanol intake in non-dependent and dependent mice (CIE paradigm): limited access 2-bottle choice, acute IP. The method, then: Exposure of mice to repeated cycles of intermittent ethanol vapor in order to induce dependence increases ethanol drinking following withdrawal in a 2-bottle choice paradigm (112, 113). Thus, the CIE paradigm is used to test the effects of a drug on dependent and nondependent drinking in mice. Briefly, C57BL/6J mutant and WT mice had access to two bottles, one containing water and the other containing 15% (w/v) ethanol, for 2 hours starting 3 hours into the dark phase. Following acquisition of stable alcohol intake, half of the mice were subjected to repeated bouts of ethanol vapor exposure consisting of 16 hours per day for 4 days. Before each exposure to ethanol vapor, mice were IP injected with a solution of 20% v/v ethanol and 68.1 mg/kg pyrazole and immediately placed into ethanol vapor chambers (La Jolla Ethanol Research, CA). Tail blood sampling for blood ethanol level (BAL) determination was carried out daily. Target BALs were 150-200 mg %. Seventy-two hours following removal from the chambers, mice received access to water vs. 20% ethanol for 2 hours, and again over the next 4 days. The following week, mice were re-exposed to the ethanol vapor/control conditions and again tested for t2-bottle choice drinking for 5 days. Three vapor bouts followed by 2-bottle choice were carried out. Mice were weighed every 4-6 days throughout the 2-bottle choice sessions and daily during the vapor exposure bouts. Food and water were available ad libitum and mice were group housed except during the ethanol drinking sessions.

For series [4], the system named is C57BL/6J mice. In words: Mouse drinking in the dark (DID) binge-like drinking. The conditions noted are these: for time course of the effect on ethanol intake within the DID session: first 2 h vs whole 4 h session; for ethanol intake in the DID paradigm: mice, 4 h drinking session, vs saline vehicle. In kind it is in vivo. The method, then:
The DID paradigm capitalizes on the circadian rhythm in drinking of mice utilizing a discrete time of exposure to ethanol to obtain pharmacologically significant ethanol drinking in a four-day procedure (114, 115). It is considered a preclinical model of binge alcohol drinking (116). Blood ethanol levels of C57BL/6J mice in DID are reliably over 100 mg % following the final drinking bout and produce behavioral intoxication in C57BL/6J mice (115). In the DID paradigm, the water bottle is replaced with a bottle containing 20% ethanol for 2 hours in the home cage 3 hours after lights go off. The design involves 3 daily drinking sessions of 2 hours and a fourth of 4 hours (114, 115).

Series [5] deals with Wistar rats. The settings on record: saccharin 0.004%; 0 and 40 mg/kg IP 90 min prior; 30 min session, FR1; listed as carbenoxolone.
For series [6] the following is noted: in vivo; cited from earlier work.
In series [7] the test system is 11β-HSD1, 11β-HSD2. The settings on record: 11β-HSD isozyme specificity per cited reference; cited from earlier work.
Series [8] has as its system inflammasome activation in neurons and astrocytes. The settings on record: cited from earlier work.
Series [9] deals with dependent rats. The conditions noted are these: systemic glucocorticoid receptor antagonism; cited from earlier work.

Sequence of Pannexin 1 (Q96RD7 whole entry, species assumed): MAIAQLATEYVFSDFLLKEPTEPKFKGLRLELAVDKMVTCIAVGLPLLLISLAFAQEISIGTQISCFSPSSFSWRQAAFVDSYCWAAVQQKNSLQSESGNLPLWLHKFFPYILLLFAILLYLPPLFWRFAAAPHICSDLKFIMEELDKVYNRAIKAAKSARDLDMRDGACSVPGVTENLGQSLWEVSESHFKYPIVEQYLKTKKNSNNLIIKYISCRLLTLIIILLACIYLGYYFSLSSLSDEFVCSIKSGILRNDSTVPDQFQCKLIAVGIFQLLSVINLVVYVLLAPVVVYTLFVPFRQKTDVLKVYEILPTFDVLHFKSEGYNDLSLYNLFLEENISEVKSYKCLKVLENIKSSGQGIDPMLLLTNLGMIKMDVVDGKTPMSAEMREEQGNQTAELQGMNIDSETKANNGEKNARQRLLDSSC

Take “280: mimetic peptide SRPTEKTIFII [Number 280]”: the “inhibition of Pannexin 1” value in series [1] was “inhibited”.
Turning to “281: mimetic peptide GHGDPLHLEEVKC [Number 281]”, the “inhibition of Pannexin 1” value in series [1] is “inhibited”.
“282: mimetic peptide SSFSWRQAAFVDS [Number 282]”: in series [1], the “inhibition of Pannexin 1” value was “inhibited”.
“283: mimetic peptide WRQAAFVDSY [Number 283]”: in series [1], the “inhibition of Pannexin 1” value is “inhibited”.
For `Nc1ncnc2c1ncn2[C@@H]1O[C@H](COP(=O)(O)OP(=O)(O)OP(=O)(O)O)[C@@H](O)[C@H]1O` [ATP], in [1], the “inhibition of Pannexin 1” value was “inhibits”.
Take `CC1(C(=O)O)CCC2(C)CCC3(C)C(=CC(=O)C4C5(C)CCC(OC(=O)CCC(=O)O)C(C)(C)C5CCC43C)C2C1` (stereo not drawn) [Number 3, 18β-glycyrrhetinic acid 3β-O-hemisuccinate]: the “operant alcohol self-administration (lever press responding for alcohol)” value was “decreases; also recorded: dose-dependently reduced” in series [2] (0, 20, 40 mg/kg IP 90 min prior, 30 min session, FR1, listed as CBX); “effectively and dose-dependently reduces” in series [2] (0, 20, 40 mg/kg IP 90 min prior, 30 min session, FR1, listed as carbenoxolone). For the same molecule, the “water intake / water responding” value in series [2] (dependent and nondependent rats, 0, 20, 40 mg/kg IP 90 min prior, 30 min session, FR1, listed as CBX) was “did not influence; also recorded: No significant effects”. Besides, the entries for the “ethanol intake in non-dependent and dependent mice (CIE paradigm)” value in series [3] (listed as CBX) and in [3] (listed as Carbenoxolone) were “reduces” and “reduced”, respectively. For the same molecule, the “ethanol intake, dependent mice” value in [3] (limited access (2 h) 2-bottle choice after alcohol vapor, 40 mg/kg IP) is “reduced”. The “ethanol intake, non-dependent mice” value in series [3] (limited access (2 h) 2-bottle choice, 20 and 40 mg/kg IP) is given as “reduced”. Moreover, the “time course of the effect on ethanol intake within the DID session” value in series [4] is on record as “more pronounced in the first 2 hours”. For the same molecule, the “ethanol intake in the DID paradigm” value in [4] (listed as CBX) is on record as “reduce”; in [4] (listed as Carbenoxolone), “reduced”. Also, the “operant self-administration of saccharin-sweetened water” value in series [5] was “did not affect”. For the same molecule, the “crossing of the blood brain barrier (BBB)” value in series [6] is reported as “does not effectively cross”.
On to `CC1(C)[C@@H](OC(=O)CCC(=O)O)CC[C@]2(C)[C@H]3C(=O)C=C4[C@@H]5C[C@@](C)(C(=O)O)CC[C@]5(C)CC[C@@]4(C)[C@]3(C)CC[C@@H]12` [Number 4, 18α-glycyrrhetinic acid 3β-O-hemisuccinate], for which, in series [4], the “time course of the effect on ethanol intake within the DID session” value is given as “more pronounced in the first 2 hours” and the “ethanol intake in the DID paradigm” value is given as “reduce”.
As to `O=C(CSc1nnnn1-c1cccc(Cl)c1)c1ccccc1` [Number 113], in series [7], the Specificity is recorded as 11β- HSD1 > 2.
As for `CS(=O)(=O)NCCC(=O)N1CCC(c2cc(C(=O)N3CCC[C@H]4CCCC[C@H]43)cs2)CC1` [Number 114], the Specificity in [7] is 11β- HSD1 > 2.
Turning to `COc1ccc2nc(NS(=O)(=O)c3ccccc3)sc2c1` [Number 115], the Specificity in [7] is on record as 11β- HSD1 > 2.
With `CC(C)(Oc1ccc(Cl)cc1)C(=O)Nc1nnn[nH]1` [Number 116], in series [7], the Specificity is reported as 11β- HSD1 > 2.
Consider `Cc1nc2c(Cl)c(NS(=O)(=O)c3cc(Cl)ccc3Cl)ccc2s1` [Number 117], for which, in [7], the Specificity is 11β- HSD1 > 2.
`O=C(Nc1ccc2scnc2c1)c1cc(Cl)cc(Cl)c1` [Number 118]: in series [7], the Specificity is given as 11β- HSD1 > 2.
With `CN(Cc1cccs1)C(=O)C12CC3CC(CC(C3)C1)C2` [Number 119], in [7], the Specificity was 11β- HSD1 > 2.
Turning to `Cc1ccc(C2(C(=O)N(C)Cc3cccs3)CC2)cc1` [Number 120], the Specificity in series [7] was 11β- HSD1 > 2.
For `CN(C)C(=O)c1ccc(COCC(=O)C23CC4CC(CC(C4)C2)C3)cc1` [Number 121], the Specificity in [7] was 11β- HSD1 > 2.
`COc1cccc(C(=O)CSc2nnc(C)s2)c1` [Number 123]: the Specificity in [7] is reported as 11β- HSD1 > 2.
With `Cn1cnnc1SCC(=O)C12CC3CC(CC(C3)C1)C2` [Number 124], in [7], the Specificity is reported as 11β- HSD1 > 2.
On to `Cn1c(N2CCN(S(=O)(=O)c3ccc(C(C)(C)C)cc3)CC2)nc2ccccc21` [Number 125], for which, in [7], the Specificity is listed as 11β- HSD1 > 2.
For the molecule `Cc1ccc(S(=O)(=O)N2CCN(c3nc4ccccc4n3C)CC2)cc1` [Number 126], in series [7], the Specificity is reported as 11β- HSD1 > 2.
In the case of `CC1(C)[C@@H](O)CC[C@]2(C)[C@H]3C(=O)C=C4[C@@](C)(CC[C@@]5(C)CC[C@@]6(C)C[C@@]45OC6=O)[C@]3(C)CC[C@@H]12` [Number 248], the Specificity in series [7] is given as 11β- HSD1 > 2.
Consider `CC(=O)O[C@H]1CC[C@]2(C)[C@H]3C(=O)C=C4[C@H]5C[C@@](C)(NS(C)(=O)=O)CC[C@]5(C)CC[C@@]4(C)[C@]3(C)CC[C@H]2C1(C)C` [Number 251], for which, in series [7], the Specificity is given as 11β- HSD1 > 2.
Turning to `CCOc1ccc(Nc2ccc(/C(=C3C=C/C(=[N+](/CC)Cc4cccc(S(=O)(=O)[O-])c4)C=C/3C)c3ccc(N(CC)Cc4cccc(S(=O)(=O)[O-])c4)cc3C)cc2)cc1.[Na+]` [Number 256, Acid blue 90, Coomassie Brilliant Blue G], the “inhibition of Pannexin 1” value in [1] is “most selective and least detrimental Pannexin 1 inhibitor”.
For the molecule `CCCN(CCC)S(=O)(=O)c1ccc(C(=O)O)cc1` [Number 257, Probenecid], the “alcohol self-administration, alcohol dependent rats” value in [2] (acute, systemic administration) is “decreases”. Further, the “inhibition of Pannexin 1” value in series [1] is “inhibits”. The “inflammasome activation in neurons and astrocytes” value in [8] is “prevents”.
In the case of `Nc1ncnc2c1ncn2[C@@H]1O[C@H](COP(=O)(O)OP(=O)(O)OP(=O)(O)O)C(OC(=O)c2ccc(C(=O)c3ccccc3)cc2)C1O` (some centres unmarked) [Number 265, 2′(3′)-O-(4-Benzoylbenzoyl)adenosine 5′-triphosphate triethylammonium salt], the “inhibition of Pannexin 1” value in series [1] is given as “inhibit Pannexin 1 more effectively than AYP”.
Take `O=C(O)c1ccccc1Nc1cccc(C(F)(F)F)c1` [flufenamic acid]: the “inhibition of Pannexin 1” value in [1] is listed as “found to inhibit the channel”.
Consider `CC#C[C@]1(O)CC[C@H]2[C@@H]3CCC4=CC(=O)CCC4=C3[C@@H](c3ccc(N(C)C)cc3)C[C@@]21C` [mifepristone], for which the “escalated alcohol drinking and compulsive response for alcohol” value in series [9] is on record as “blocked”.
